Reference: patent US20110098283A1, “3-CINNOLINECARBOXAMIDE DERIVATIVES AND THEIR USE FOR TREATING CANCER” (ASTRAZENECA AB, priority 2007, published 2011)

What was measured:
[1] = molecular target: T1, CSF-1R (His-tagged kinase domain, amino acids 568-912) (Homo sapiens, UniProt P07333); test: Assay 1: CSF-1R in vitro AlphaScreen Assay; format: biochemical; conditions: phosphorylation of pEY substrate; 0.57 nM CSF-1R, 90 μM ATP
T1 construct: The His-tagged kinase domain of CSF-1R (i.e., amino acids 568-912, GeneBank ID NM_005211); His; made in house; host or cells: baculovirus infected SF+Express insect cells
T1 sequence (P07333 568-912): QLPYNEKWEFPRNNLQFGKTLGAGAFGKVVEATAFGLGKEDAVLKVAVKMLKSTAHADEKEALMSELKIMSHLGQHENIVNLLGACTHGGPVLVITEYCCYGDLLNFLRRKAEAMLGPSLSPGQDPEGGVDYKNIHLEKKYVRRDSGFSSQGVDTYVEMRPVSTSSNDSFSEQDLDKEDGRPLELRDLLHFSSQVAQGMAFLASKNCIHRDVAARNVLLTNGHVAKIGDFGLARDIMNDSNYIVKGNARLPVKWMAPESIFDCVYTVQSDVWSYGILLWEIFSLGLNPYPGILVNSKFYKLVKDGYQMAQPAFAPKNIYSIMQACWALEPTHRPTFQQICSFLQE
Experimental: Assay 1: CSF-1R in vitro AlphaScreen Assay
Activity of purified CSF-1R was determined in vitro using an Amplified Luminescent Proximity Homogeneous Assay (ALPHA) (Perkin Elmer), which measures phosphorylation of the CSF-1R substrate, biotinylated poly-glutamine-tyrosine peptide (pEY-HTRF CisBio 61GT0BLD), as described below.
The phosphorylation of the CSF-1R substrate in the presence and absence of the compound of interest was determined. […] Plates were incubated at 25° C. for 18 hours in the dark. Phosphorylated substrate was detected by an EnVision plate reader (Perkin Elmer) 680 nm excitation, 520-620 nm emission. Data was graphed and IC50s calculated using Excel Fit (Microsoft).

[2] = molecular target: T1, CSF-1R (His-tagged kinase domain, amino acids 568-912); test: Assay 2: CSF1R in-vitro AlphaScreen Assay; format: biochemical; conditions: phosphorylation of pEY substrate; 0.46 nM CSF-1R, 12 mM ATP in mix
Experimental: Assay 2: CSF1R in-vitro AlphaScreen Assay
Activity of purified CSF-1R was determined in-vitro using an Amplified Luminescent Proximity Homogeneous Assay (ALPHA) (Perkin Elmer, Mass.), which measures phosphorylation of CSF-1R substrate, biotinylated poly-glutamine-tyrosine peptide (pEY-HTRF CisBio 61GT0BLD), as described below. The His-tagged kinase domain of CSF-1R (i e, amino acids 568-912, GeneBank ID NM_005211) was purified from baculovirus infected SF+Express insect cells (1.4×10^6 cells/ml), French pressed and chromatographed through subsequent QIAgen Ni-NTA, Superflow Mono Q HR 10/10, and Superdex 200 SEC columns.
The phosphorylation of the CSF-1R substrate in the presence and absence of the compound of interest was determined. Briefly, 5 ul of Enzyme/Substrate/adenosine triphosphate (ATP) mix consisting of 0.46 nM of purified CSF-1R, 12 nM pEY substrate, and 12 mM ATP in 1.2× buffer was preincubated with 2 ul of compound for 20 minutes at 25° C. Reactions were initiated with 5 ul of Metal mix consisting of 24 mM MgCl2 in 1.2× buffer and incubated at 25° C. for 90 minutes and reactions were stopped by addition of 5 ul of Detection mix consisting of 20 mM HEPES, 102 mM ethylenediamine tetraacetic acid, 1.65 mg/ml BSA, 136 mM NaCl, 40 ug/ml Streptavidin donor beads (Perkin Elmer, Mass., Catalog #6760002), and 40 ug/ml phosphotyrosine-specific antibody coated acceptor beads (Perkin Elmer, Mass., Catalog #6760620). Plates were incubated at 25° C. for 18 hours in the dark. Phosphorylated substrate was detected by an EnVision plate reader (Perkin Elmer) 680 nm excitation, 520-620 nm emission. Data was graphed and IC50s calculated using Excel Fit (Microsoft).

SMILES | IC50 [1] [nM] | IC50 [2] [nM]
COc1cc2nnc(C(N)=O)c(Nc3cccc(Cl)c3Cl)c2cc1OC [Example 5, 4-[(2,3-Dichlorophenyl)amino]-6,7-dimethoxycinnoline-3-carboxamide] | < 3 | –
COc1cc2nnc(C(N)=O)c(Nc3ccc(F)cc3F)c2cc1N1C[C@@H](C)N[C@@H](C)C1 [Example 44, 4-[(2,4-Difluorophenyl)amino]-6-[(3R,5S)-3,5-dimethylpiperazin-1-yl]-7-methoxycinnoline-3-carboxamide] | – | 16
CCOc1cc2nnc(C(N)=O)c(Nc3cccc(Cl)c3Cl)c2cc1N1CCN(C)CC1 [Example 8, 4-[(2,3-Dichlorophenyl)amino]-7-ethoxy-6-(4-methylpiperazin-1-yl)cinnoline-3-carboxamide] | 3 | –
CCOc1cc2nnc(C(N)=O)c(Nc3ccc(C)cc3F)c2cc1N1CCN(C)CC1 [Example 10, 7-Ethoxy-4-[(2-fluoro-4-methyl-phenyl)amino]-6-(4-methylpiperazin-1-yl)cinnoline-3-carboxamide] | < 3 | –
CCOc1cc2nnc(C(N)=O)c(Nc3ccc(C)cc3F)c2cc1N1CCCN(C)CC1 [Example 27, 7-Ethoxy-4-[(2-fluoro-4-methylphenyl)amino]-6-(4-methyl-1,4-diazepan-1-yl)cinnoline-3-carboxamide] | < 3 | –
COc1cc2nnc(C(N)=O)c(Nc3ccc(F)cc3F)c2cc1N1CCN(C)CC1 [Example 20, 4-[(2,4-Difluorophenyl)amino]-7-methoxy-6-(4-methylpiperazin-1-yl)cinnoline-3-carboxamide] | < 3 | –
COc1cc2nnc(C(N)=O)c(Nc3ccc(C)cc3F)c2cc1N1CCN2C(=NNC2O)C1 (stereo not shown) [Example 32, 4-[(2-Fluoro-4-methylphenyl)amino]-6-(3-hydroxy-2,5,6,8-tetrahydro[1,2,4]triazolo[4,3-a]pyrazin-7(3H)-yl)-7-methoxycinnoline-3-carboxamide] | – | 8
COc1cc2nnc(C(N)=O)c(Nc3ccc(C)cc3F)c2cc1N1CCN(C(C)(C)C)CC1 [Example 16, 6-(4-tert-Butylpiperazin-1-yl)-4-[(2-fluoro-4-methylphenyl)amino]-7-methoxycinnoline-3-carboxamide] | 9 | –
COc1cc2nnc(C(N)=O)c(Nc3ccc(C)cc3F)c2cc1OC [Example 2, 4-[(2-Fluoro-4-methylphenyl)amino]-6,7-dimethoxycinnoline-3-carboxamide] | 8 | –
CCOc1cc2nnc(C(N)=O)c(Nc3ccc(C)cc3F)c2cc1N1CCN(CCO)CC1 [Example 43, 7-Ethoxy-4-[(2-fluoro-4-methylphenyl)amino]-6-[4-(2-hydroxyethyl)piperazin-1-yl]cinnoline-3-carboxamide] | – | 3
COc1cc2nnc(C(N)=O)c(Nc3ccc(C)cc3F)c2cc1C1CCN(S(C)(=O)=O)CC1 [Example 50, 4-[(2-Fluoro-4-methylphenyl)amino]-7-methoxy-6-[1-(methylsulfonyl)piperidin-4-yl]cinnoline-3-carboxamide] | – | 33
COc1cc2nnc(C(N)=O)c(Nc3cc(C)ccc3F)c2cc1N1CCN(C)CC1 [Example 22, 4-[(2-Fluoro-5-methylphenyl)amino]-7-methoxy-6-(4-methylpiperazin-1-yl)cinnoline-3-carboxamide] | < 3 | –
COc1cc2nnc(C(N)=O)c(Nc3cc(C)ccc3F)c2cc1OC [Example 4, 4-[(2-Fluoro-5-methylphenyl)amino]-6,7-dimethoxycinnoline-3-carboxamide] | 5 | –
COc1cc2nnc(C(N)=O)c(Nc3cc(C)ccc3F)c2cc1N1CCN(C(C)C)CC1 [Example 23, 4-[(2-Fluoro-5-methylphenyl)amino]-6-(4-isopropylpiperazin-1-yl)-7-methoxycinnoline-3-carboxamide] | < 5 | –
COc1cc2nnc(C(N)=O)c(Nc3ccc(F)cc3F)c2cc1OC [Example 1, 4-[(2,4-Difluorophenyl)amino]-6,7-dimethoxycinnoline-3-carboxamide] | < 3 | –
COc1cc2nnc(C(N)=O)c(Nc3ccc(C)cc3F)c2cc1-c1ccncc1 [Example 26, 4-[(2-Fluoro-4-methylphenyl)amino]-7-methoxy-6-pyridin-4-ylcinnoline-3-carboxamide] | 51 | –
CCOc1cc2nnc(C(N)=O)c(Nc3cc(C)ccc3F)c2cc1N1CCN(C)CC1 [Example 6, 7-Ethoxy-4-[(2-fluoro-5-methylphenyl)amino]-6-(4-methylpiperazin-1-yl)cinnoline-3-carboxamide] | < 3 | –
CCOc1cc2nnc(C(N)=O)c(Nc3ccc(C)cc3F)c2cc1N1C[C@@H](C)N[C@@H](C)C1 [Example 28, 6-[(3R,5S)-3,5-Dimethylpiperazin-1-yl]-7-ethoxy-4-[(2-fluoro-4-methylphenyl)amino]cinnoline-3-carboxamide] | < 3 | –
CCOc1cc2nnc(C(N)=O)c(Nc3ccc(F)cc3F)c2cc1N1CCN(C(C)C)CC1 [Example 11, 4-[(2,4-Difluorophenyl)amino]-7-ethoxy-6-(4-propan-2-ylpiperazin-1-yl)cinnoline-3-carboxamide] | 8 | –
COCCOc1cc2nnc(C(N)=O)c(Nc3ccc(F)cc3F)c2cc1N1CCN(C)CC1 [Example 17, 4-[(2,4-Difluorophenyl)amino]-7-(2-methoxyethoxy)-6-(4-methylpiperazin-1-yl)cinnoline-3-carboxamide] | < 3 | –
COCCOc1cc2nnc(C(N)=O)c(Nc3ccc(F)cc3F)c2cc1N1CCN(C(C)C)CC1 [Example 24, 4-[(2,4-Difluorophenyl)amino]-6-(4-isopropylpiperazin-1-yl)-7-(2-methoxyethoxy)cinnoline-3-carboxamide] | < 3 | –
CCOc1cc2nnc(C(N)=O)c(Nc3ccc(C)cc3F)c2cc1N1CCN(C(C)C)CC1 [Example 25, 7-Ethoxy-4-[(2-fluoro-4-methylphenyl)amino]-6-(4-isopropylpiperazin-1-yl)cinnoline-3-carboxamide] | < 3 | –
CCOc1cc2nnc(C(N)=O)c(Nc3ccc(F)cc3F)c2cc1N1CCN(CC)CC1 [Example 12, 4-[(2,4-Difluorophenyl)amino]-7-ethoxy-6-(4-ethylpiperazin-1-yl)cinnoline-3-carboxamide] | 5 | –
COCCOc1cc2nnc(C(N)=O)c(Nc3cc(C)ccc3F)c2cc1N1CCN(C)CC1 [Example 19, 4-[(2-Fluoro-5-methylphenyl)amino]-7-(2-methoxyethoxy)-6-(4-methylpiperazin-1-yl)cinnoline-3-carboxamide] | < 3 | –
CCOc1cc2nnc(C(N)=O)c(Nc3cccc(Cl)c3F)c2cc1N1CCN(C)CC1 [Example 9, 4-[(3-Chloro-2-fluoro-phenyl)amino]-7-ethoxy-6-(4-methylpiperazin-1-yl)cinnoline-3-carboxamide] | < 15 | –
COCCOc1cc2nnc(C(N)=O)c(Nc3cccc(Cl)c3F)c2cc1N1CCN(C)CC1 [Example 21, 4-[(3-Chloro-2-fluorophenyl)amino]-7-(2-methoxyethoxy)-6-(4-methylpiperazin-1-yl)cinnoline-3-carboxamide] | < 3 | –
COc1cc2nnc(C(N)=O)c(Nc3cccc(Cl)c3F)c2cc1N1CCN(C)CC1 [Example 14, 4-[(3-Chloro-2-fluorophenyl)amino]-7-methoxy-6-(4-methylpiperazin-1-yl)cinnoline-3-carboxamide] | < 3 | –
COCCOc1cc2nnc(C(N)=O)c(Nc3ccc(C)cc3F)c2cc1N1CCN(C)CC1 [Example 18, 4-[(2-Fluoro-4-methylphenyl)amino]-7-(2-methoxyethoxy)-6-(4-methylpiperazin-1-yl)cinnoline-3-carboxamide] | < 3 | –
